US6583306B1, “Methods of asymmetrically synthesizing enantiomers of Casodex, its derivatives and intermediates thereof” (priority 1999, dated 2003)
Where two headings read alike, the source gives them in different places.

Test system: testosterone response
Assay: Biological data comparing pure enantiomers of Casodex (bicalutamide) with the racemic mixture: reduction of the testosterone response
Type: cell-based
Text: The data for dihydrotestosterone are EC50 values. The rest of the data are IC50 values, since the assay is measuring the amount of compound it takes to reduce the testosterone response 50%.

[1] = Experiment 1, amount of compound it takes to reduce the testosterone response 50%, read-out: IC50, Experiment 1
[2] = Experiment 2, amount of compound it takes to reduce the testosterone response 50%, read-out: IC50, Experiment 2

SMILES | IC50 [1] | IC50 [2] | other results
CC(O)(CS(=O)(=O)c1ccc(F)cc1)C(=O)Nc1ccc(C#N)c(C(F)(F)F)c1 (racemic) [Racemate, N-[4-cyano-3-(trifluoromethyl)phenyl]-3-[(4-fluorophenyl)sulfonyl]-2-hydroxy-2-methyl-propanamide,(+−)] | – | – | IC50 (read-out: IC50, Experiment 1): 0.9 µM; IC50 (read-out: IC50, Experiment 2): 1 µM
CC(O)(CS(=O)(=O)c1ccc(F)cc1)C(=O)Nc1ccc(C#N)c(C(F)(F)F)c1 [(R), N-(4cyano-3-trifluoromethyl-phenyl)-3-(4-fluoro-phenylsulfonyl)2-hydroxy-2-methyl-propionamide] | 0.374 µM | 0.359 µM | –
C[C@@](O)(CS(=O)(=O)c1ccc(F)cc1)C(=O)Nc1ccc(C#N)c(C(F)(F)F)c1 [(S)] | 7.7 µM | 11 µM | –
C[C@]12CCC(=O)C[C@@H]1CC[C@@H]1[C@@H]2CC[C@]2(C)[C@@H](O)CC[C@@H]12 [DHT (Standard), dihydrotestosterone] | – | – | EC50 (read-out: EC50, Experiment 1): 0.00018 µM; EC50 (read-out: EC50, Experiment 2): 0.00018 µM
CC(C)(O)C(=O)Nc1ccc([N+](=O)[O-])c(C(F)(F)F)c1 [OH Flut. (Standard)] | 0.019 µM | 0.041 µM | –
